According to patent publication US20250320227A1, “MACROCYCLIC OREXIN RECEPTOR AGONISTS AND USES THEREOF” (Jazz Pharmaceuticals Ireland Limited, priority 2022, published 2025):

These compounds were tested against T1, human recombinant OX2 (hOX2) receptors expressed in CHO cells (Homo sapiens, UniProt O43614) (assay: IP-1 accumulation assay (IP-One HTRF) in hOX2-CHO cells). Settings: 60 min incubation at 37° C., mean of at least two independent experiments, read-out: EC50_OX2R Category.
T1 construct: host or cells: CHO cells (hOX2-CHO)
T1 sequence (O43614 1-444): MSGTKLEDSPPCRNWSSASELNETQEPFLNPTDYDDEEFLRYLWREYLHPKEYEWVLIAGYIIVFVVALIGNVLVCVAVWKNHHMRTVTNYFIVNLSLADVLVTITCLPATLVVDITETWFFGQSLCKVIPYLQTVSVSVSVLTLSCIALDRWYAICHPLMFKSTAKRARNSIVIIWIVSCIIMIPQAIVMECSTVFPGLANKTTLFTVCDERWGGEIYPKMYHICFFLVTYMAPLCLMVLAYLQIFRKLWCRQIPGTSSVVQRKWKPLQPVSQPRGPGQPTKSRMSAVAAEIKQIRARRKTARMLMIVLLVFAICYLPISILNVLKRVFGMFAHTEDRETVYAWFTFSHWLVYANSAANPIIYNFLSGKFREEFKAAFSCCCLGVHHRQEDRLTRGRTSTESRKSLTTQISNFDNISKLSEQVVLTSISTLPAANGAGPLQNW
Format: cell-based
Procedure, shortened: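 CHO cells in suspension in HBSS/20 mM HEPES pH 7.4 with 50 mM LiCl and 0.1% BSA, given compound (11-point series, 0.5% DMSO) for 60 min at 37 °C. IP-1 read by HTRF ratio, scaled to maximal OX-A response; EC50 from four-parameter fit, mean of ≥2 experiments.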
In the case of O=C1COCC2(CCN3C(=O)CCOc4ccccc4[C@H]4CC[C@H](CC4)OCC32)N1 (mixture of isomers) [Example 1, rel-(1's,3S,16′R,19′s)-8′,18′-dioxa-12′-azaspiro[morpholine-3,15′-tetracyclo[17.2.2.0^2,70.0^12,16]tricosane]-2′(7′),3′,5′-triene-5,11′-dione], the EC50 is reported as < 100 nM. O=C1COC[C@]2(CCCN3C(=O)COc4cccc(F)c4[C@H]4CC[C@H](CC4)OC[C@@H]32)N1 (single isomer, unassigned) [Example 40b] was tested, and the EC50 was 1000 to 10000 nM. C[C@@H]1C[C@]2(COCC(=O)N2)[C@H]2CO[C@H]3CC[C@H](CC3)c3cccnc3OCC(=O)N12 (single isomer, unassigned) [Example 23b] was tested, and the EC50 was 1000 to 10000 nM. Compound C[C@@H]1C[C@@]2(COCC(=O)N2)[C@@H]2CO[C@H]3CC[C@H](CC3)c3cc(Cl)ccc3OCC(=O)N12 (single isomer, unassigned) [Example 21a] has an EC50 of 100 to 1000 nM. For O=C1COCC2(CCCN3C(=O)OCCCOc4cccc(c4)[C@H]4CC[C@H](CC4)OCC32)N1 (mixture of isomers) [Example 54, Rel-(1′s,3S,18′R,21′s)-7′,11′,20′-trioxa-13′-azaspiro[morpholine-3,17′-tetracyclo[19.2.2.1^2,60.0^13,18]hexacosane]-2′(26′),3′,5′-triene-5,12′-dione], the EC50 was < 100 nM. With CC1CC2(COCC(=O)N2)C2COC3CCC(CC3)c3ccncc3OCCC(=O)N12 (single isomer, unassigned) [Example 75] the EC50 was > 10000 nM. With O=C1COC[C@@]2(CCCN3C(=O)COc4cc(F)cc(F)c4[C@H]4CC[C@H](CC4)OC[C@H]32)N1 (single isomer, unassigned) [Example 42a] the EC50 was < 100 nM. With O=C1COCC2(CCCN3C(=O)CCCOc4ccccc4[C@H]4CC[C@H](CC4)OCC32)N1 (stereo partly drawn) [Example 34, Rel-(1′s,3S,18′R,21′s)-8′,20′-dioxa-13′-azaspiro[morpholine-3,17′-tetracyclo[19.2.2.0^2,70.0^13,18]pentacosane]-2′(7′),3′,5′-triene-5,12′-dione] the EC50 was < 100 nM. O=C1COC[C@]2(CCCN3C(=O)CCOc4ccc(F)cc4[C@H]4CC[C@H](CC4)OC[C@@H]32)N1 (single isomer, unassigned) [Example 49b] was tested, and the EC50 was < 100 nM. O=C1COC[C@@]2(CCCN3C(=O)COc4ncccc4[C@H]4CC[C@H](CC4)OC[C@H]32)N1 (single isomer, unassigned) [Example 45a] was tested, and the EC50 was < 100 nM. Compound C[C@H]1CC(=O)N2CC[C@@]3(COCC(=O)N3)[C@@H]2CO[C@H]2CC[C@H](CC2)c2ccccc2O1 (single isomer, unassigned) [Example 4b, (1′s, 3S,9′S,16′R,19′s)-9′-methyl-8′,18′-dioxa-12′-azaspiro[morpholine-3,15′-tetracyclo[17.2.2.0^2,70.0^12,16]tricosane]-2′(7′),3′,5′-triene-5,11′-dione] has an EC50 of 100 to 1000 nM. For O=C1COc2ccccc2[C@H]2CC[C@H](CC2)OC[C@H]2N1CCC[C@]21CCCS(=O)(=O)N1 (single isomer, unassigned) [Example 59b], the EC50 was 1000 to 10000 nM. For CC1Oc2ccccc2[C@H]2CC[C@H](CC2)OCC2N(CCCC23COCC(=O)N3)C1=O (stereo partly drawn) [Example 35, Rel-(1′s,3S,16′R,19′s)-9′-methyl-8′,18′-dioxa-11′-azaspiro[morpholine-3, 15′-tetracyclo[17.2.2.0^2,70.0^11,16]tricosane]-2′(7′),3′,5′-triene-5,10′-dione], the EC50 was < 100 nM. With CC1COc2ccccc2[C@H]2CC[C@H](CC2)OCC2N(CCC23COCC(=O)N3)C1=O (stereo partly drawn) [Example 5, (1′s,3S,16′R,19′s)-10′-methyl-8′,18′-dioxa-12′-azaspiro[morpholine-3,15-′tetracyclo[17.2.2.0^2,70.0^12,16]tricosane]-2′(7′), 3′,5′-triene-5, 11′-dione] the EC50 was 100 to 1000 nM. For C[C@@H]1CC(=O)N2CC[C@]3(COCC(=O)N3)[C@H]2CO[C@H]2CC[C@H](CC2)c2ccccc2O1 (single isomer, unassigned) [Example 4d], the EC50 was > 10000 nM. With O=C1COCC2(CCCN3C(=O)OCCc4ccccc4[C@H]4CC[C@H](CC4)OCC32)N1 (mixture of isomers) [Example 52, Rel-(1′s,3S,17′R,20's)-10′,19′-dioxa-12′-azaspiro[morpholine-3,16′-tetracyclo [18.2.2.0^2,70.0^12,17]tetracosane]-2′(7′), 3′,5′-triene-5,11′-dione] the EC50 was 1000 to 10000 nM. In the case of O=C1N[C@@]2(CCCN3C(=O)COc4ccccc4[C@H]4CC[C@H](CC4)OC[C@@H]32)COC1F (single isomer, unassigned) [Example 56b], the EC50 is reported as < 100 nM. With O=C1COCC2(CCCN3C(=O)C4(CC4)COc4cccc(F)c4[C@H]4CC[C@H](CC4)OCC32)N1 (mixture of isomers) [Example 72, (1′s,20′s)-3′-fluorodispiro [cyclopropane-1,10′-[8,19]dioxa-[12]azatetracyclo [18.2.2.0^2,^7.0^12,^17]tetracosane-16′,3″- morpholine]-2′,4′,6′-triene-5″,11′-dione] the EC50 was < 100 nM. C[C@H]1CC(=O)N2CC[C@]3(COCC(=O)N3)[C@H]2CO[C@H]2CC[C@H](CC2)c2ccccc2O1 (single isomer, unassigned) [Example 4a] was tested, and the EC50 was > 10000 nM. In the case of O=C1COCC2(CCCN3C(=O)CCCCc4ccccc4-c4cccc(c4F)CC32)N1 (racemic) [Example 62, Rel-(3S, 18′S)-24′-fluoro-13′-azaspiro[morpholine-3,17′-tetracyclo[18.3.1.0^2,70.0^13,18]tetracosane]-1′(24′),2′(7′),3′,5′,20′,22′-hexaene-5,12′-dione], the EC50 is reported as > 10000 nM. Cc1ccnc2c1[C@H]1CC[C@H](CC1)OC[C@H]1N(CCC[C@]13COCC(=O)N3)C(=O)CO2 [Example 77b, (1′s,3R,16′S,19′s)-3′-methyl-8′,18′-dioxa-6′, 11′-diazaspiro[morpholine-3,15′-tetracyclo[17.2.2.0^2,70.0^11,16]tricosane]-2′,4′,6′-triene-5,10′-dione] was tested, and the EC50 was > 10000 nM. For C[C@@H]1CC2(COCC(=O)N2)C2CO[C@H]3CC[C@H](CC3)c3ccccc3OCCC(=O)N21 (relative stereo) [Example 13, rel-(1′s,3S, 13′R,16′R,19′s)-13′-methyl-8′,18′-dioxa-12′-azaspiro[morpholine-3,15′-tetracyclo[17.2.2.0^2,70.0^12,16]tricosane]-2′(7′),3′,5′-triene-5,11′-dione], the EC50 was < 100 nM. Compound O=C1COC[C@]2(CCCN3C(=O)C4(CC4)COc4ccccc4[C@H]4CC[C@H](CC4)OC[C@@H]32)N1 (single isomer, unassigned) [Example 37b, (1′s,16′R,17′S,20′s)-dispiro[cyclopropane-1,10′-[8,19]dioxa-[12]azatetracyclo[18.2.2.0^2,70.0^12,17]tetracosane-16′,3″-morpholine]-2′(7′),3′,5′-triene-5″,11′-dione] has an EC50 of 1000 to 10000 nM. With O=C1CS[C@]2(CCCN3C(=O)COc4ccccc4[C@H]4CC[C@H](CC4)OC[C@H]32)N1 (single isomer, unassigned) [Example 68b] the EC50 was > 10000 nM. With O=C1COCC2(CCN3C(=O)COc4ccccc4[C@H]4CC[C@H](CC4)OCC32)N1 (mixture of isomers) [Example 3, rel-(1′s,3S, 15′R,18′s)-8′,17′-dioxa-11′-azaspiro[morpholine-3,14′-tetracyclo[16.2.2.0^2,70.0^11,15]docosane]-2′(7′),3′,5′-triene-5,10′-dione] the EC50 was 1000 to 10000 nM.
